This is an account of results in publication PMC6276031 (International Journal of Neuropsychopharmacology, 2018).

In assay [1] the target is dopamine D3 receptor (D3R) (Homo sapiens, UniProt P35462). Put plainly: GIRK1/[…] current activation in Xenopus oocytes expressing D3R. In kind it is cell-based.
The target of assay [2] is T1, dopamine D2 receptor (D2R, D2L long isoform) (Homo sapiens, UniProt P14416). Put plainly: GIRK1/[…] current activation in Xenopus oocytes. In kind it is cell-based.
The target of assay [3] is T1, dopamine D2 receptor (D2R, D2L long isoform). The experiment in a line: cell-based. To be noted: read-out: % of the mean response to 1 μM dopamine.

T1 sequence (P14416 whole entry, canonical isoform): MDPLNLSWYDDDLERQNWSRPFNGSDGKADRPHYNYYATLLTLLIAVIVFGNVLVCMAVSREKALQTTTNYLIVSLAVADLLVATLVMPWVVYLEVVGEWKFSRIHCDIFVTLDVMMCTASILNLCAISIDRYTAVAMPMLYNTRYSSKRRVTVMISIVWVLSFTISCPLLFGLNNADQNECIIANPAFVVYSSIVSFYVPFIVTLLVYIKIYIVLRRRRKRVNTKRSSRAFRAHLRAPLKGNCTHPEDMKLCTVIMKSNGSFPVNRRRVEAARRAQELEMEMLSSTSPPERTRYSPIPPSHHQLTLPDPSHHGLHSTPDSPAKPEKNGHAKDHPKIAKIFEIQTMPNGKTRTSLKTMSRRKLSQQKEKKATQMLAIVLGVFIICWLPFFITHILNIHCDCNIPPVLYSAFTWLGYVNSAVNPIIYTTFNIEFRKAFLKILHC
Chain of dopamine D3 receptor (D3R) (P35462 whole entry, canonical isoform): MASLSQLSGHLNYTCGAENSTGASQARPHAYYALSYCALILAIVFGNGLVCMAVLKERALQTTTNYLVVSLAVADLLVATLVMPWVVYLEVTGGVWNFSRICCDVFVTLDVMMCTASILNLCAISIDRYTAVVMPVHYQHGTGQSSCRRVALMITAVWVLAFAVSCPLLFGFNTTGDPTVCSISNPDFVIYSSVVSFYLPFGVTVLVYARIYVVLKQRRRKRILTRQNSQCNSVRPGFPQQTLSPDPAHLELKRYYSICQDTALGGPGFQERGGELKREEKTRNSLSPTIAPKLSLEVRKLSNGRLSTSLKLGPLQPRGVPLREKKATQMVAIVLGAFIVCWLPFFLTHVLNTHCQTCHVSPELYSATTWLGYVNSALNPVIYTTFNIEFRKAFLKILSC

In the case of `Clc1cccc(C2CCN(CCCOc3ccc4scnc4c3)CC2)c1Cl` [UNC9994], the EC50 in assay [1] amounted to 0.0621 µM; in assay [2], 0.185 µM.

As for `CCCN1CCC[C@@H](c2cccc(O)c2)C1` [(-)-3-PPP], the Emax in assay [3] is 27.7 ± 7.5%.
